Biological target: T1, FLuc-C-HiBiT (Photinus pyralis, UniProt P08659)
T1 construct: firefly luciferase with C-terminal HiBiT tag, E. coli expressed
Test: biochemical
Conditions: enzyme activity, 10 uM ATP; read-out: IC50 or SDR50 (mM) / FLuc E

T1 sequence (P08659 whole entry, looked up): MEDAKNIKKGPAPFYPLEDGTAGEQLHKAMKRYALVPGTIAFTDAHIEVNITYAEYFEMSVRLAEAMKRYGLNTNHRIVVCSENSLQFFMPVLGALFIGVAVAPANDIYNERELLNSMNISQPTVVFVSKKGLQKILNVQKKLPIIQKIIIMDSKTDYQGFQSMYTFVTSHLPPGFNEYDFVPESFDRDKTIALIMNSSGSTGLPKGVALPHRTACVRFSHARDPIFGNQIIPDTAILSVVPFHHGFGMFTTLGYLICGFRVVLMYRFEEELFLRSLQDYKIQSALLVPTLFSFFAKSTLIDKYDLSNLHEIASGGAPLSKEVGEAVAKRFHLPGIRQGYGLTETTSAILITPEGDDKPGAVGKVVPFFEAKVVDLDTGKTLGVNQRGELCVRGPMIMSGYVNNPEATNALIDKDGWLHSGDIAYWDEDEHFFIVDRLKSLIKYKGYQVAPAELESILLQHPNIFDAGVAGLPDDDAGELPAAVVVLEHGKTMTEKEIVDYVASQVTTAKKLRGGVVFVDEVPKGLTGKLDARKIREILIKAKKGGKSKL

COc1cccc(Nc2nc(-c3ccccc3)no2)c1 [NCGC00422289-01]
IC50: 0.00624 mM

COc1ccc(-c2nc3ccccc3s2)cc1NC(=O)c1ccccc1F [NCGC00103034-01]
IC50: > 0.03 mM

CC1CCCCN1c1csc2ccc(F)cc2c1=O (stereo not shown) [NCGC00132384-01]
IC50: 0.00881 mM

Cc1ccc2[nH]c([C@H]3CCN(C(C)C)C3)nc2c1 [NCGC00391182-01]
IC50: 0.0254 mM

CCNC(=O)N1CC(Oc2ccc(-c3nc(-c4ccccc4)no3)cc2)C1 [NCGC00441125-01]
IC50: 0.00556 mM

COc1ccc(C(=O)N2CCCC(c3nc(-c4ccccc4)no3)CCNC(=O)CC2)c(OC)n1 (stereo not shown) [NCGC00465834-01]
IC50: 0.0111 mM

Cc1cccc(-n2ncc3c(N4CCCC(C)C4)ncnc32)c1 (stereo not shown) [NCGC00138848-01]
IC50: 0.0007 mM

Cc1ccc(C2Cn3nnc(C(=O)N4CCC(C(=O)Nc5ccccc5)CC4)c3CO2)cc1 (stereo not shown) [NCGC00449585-01]
IC50: 0.0111 mM

O=C(COc1ccccc1[N+](=O)[O-])Nc1ccc(-c2nc3ccccc3s2)cc1 [NCGC00119127-01]
IC50: > 0.03 mM

COc1ccc(-c2cc(N3CCCC(NC(=O)c4cccc(OC)c4)C3)[nH]n2)cc1 (stereo not shown) [NCGC00437636-01]
IC50: 0.00785 mM

CCC(=O)Nc1cnc(-c2ccc(C)cc2)nc1 [NCGC00432895-01]
IC50: 0.00881 mM

O=C(N1c2ccccc2CC1c1noc(C2CCOCC2)n1)C1(c2ccccc2)CC1 (stereo not shown) [NCGC00471505-01]
IC50: 0.0124 mM

Cc1ccc(OCC(=O)Nc2cccc(-c3nc4ccccc4s3)c2)cc1 [NCGC00119153-02]
IC50: 0.00989 mM

CCC(=O)Nc1cc2nn(-c3ccc(C)cc3)nc2cc1C [NCGC00098511-01]
IC50: 0.000394 mM

O=C(O)c1ccc(-c2noc(-c3ccc(F)cc3)n2)cc1 [NCGC00168098-01]
IC50: 0.000442 mM

CCn1cc(-c2ccc(Cl)cc2)cc1C(=O)O [NCGC00432653-01]
IC50: > 0.03 mM

COc1ccc(N2CCN(C(=O)Cn3cccc3-c3nc(-c4ccc5c(c4)OCO5)no3)CC2)cc1 [NCGC00445315-01]
IC50: > 0.03 mM

O=C(Nc1ccccc1)N1CC(Oc2ccc(-c3nc(-c4ccccc4)no3)cc2)C1 [NCGC00441117-01]
IC50: 0.0111 mM

Cc1cc(Cl)ccc1-n1ncc2c(N3CCCCC3)ncnc21 [NCGC00651954-01]
IC50: 0.00442 mM

COc1ccc(C2=NOC3(CCN([S+](=O)([O-])c4cccs4)C3)C2)cc1 (stereo not shown) [NCGC00476604-01]
IC50: > 0.03 mM

COc1ccc(-c2cc(N3CCCC(NC(=O)c4cccc5[nH]ccc45)C3)[nH]n2)cc1 (stereo not shown) [NCGC00437654-01]
IC50: 0.014 mM

COc1cccc(-c2ncc3c(n2)OCCN(Cc2ccccc2)C3=O)c1 [NCGC00413619-01]
IC50: 0.0128 mM

O=C(Nc1c(C(=O)O)oc2ccccc12)c1ccc(C(F)(F)F)cc1 [NCGC00141808-01]
IC50: 0.00989 mM

O=C1CC2(CCN(CC3CC3)CC2)Oc2cc(Cl)ccc21 [NCGC00476866-01]
IC50: 0.018 mM

COc1ccc(-c2cc(N3CCCC(NC(=O)c4cc(OC)cc(OC)c4)C3)[nH]n2)cc1 (stereo not shown) [NCGC00437618-01]
IC50: 0.00989 mM

CSCC(=O)Nc1nc2c(s1)C[C@]1(C)CC[C@@H]3[C@H](OC(=O)[C@H]3C)[C@H]1[C@@H]2C [NCGC00401416-01]
IC50: 0.00453 mM

Cc1ccc(/C=C/c2nc3ccccc3n2S(=O)(=O)c2ccc(Br)cc2)cc1 [NCGC00140607-01]
IC50: 0.000624 mM

COc1ccccc1OC1(C(=O)O)CCN(c2ncnc3[nH]cnc23)CC1 [NCGC00436727-01]
IC50: > 0.03 mM

COc1ccccc1OC(C)C(=O)Nc1ccc(-c2nc3ccccc3s2)cc1 (stereo not shown) [NCGC00119131-01]
IC50: > 0.03 mM

CCn1ncc(NC(=O)Cn2ncc3cc(-c4ccc(N(C)C)cc4)ccc32)n1 [NCGC00433406-01]
IC50: 0.000785 mM

COc1ccc(F)cc1-c1ccc(COc2ccc3c(cnn3CCC(=O)O)c2)cc1 [NCGC00418072-01]
IC50: 0.018 mM

O=C(O)c1ccc(-c2ccc(N3CCCCCC3)nc2)cc1 [NCGC00432679-01]
IC50: 0.00248 mM

COc1ccc(-n2ncc3c(NC4CCCC4)ncnc32)cc1 [NCGC00139254-01]
IC50: 0.00176 mM

CCOCC1(C)COc2ccc(C(=O)Nc3ccc(Cl)cc3)cc2N1 (stereo not shown) [NCGC00416138-01]
IC50: 0.018 mM
